Source: US4218477A, “Primary aminoacylanilides, methods of making the same and use as antiarrhythmic drugs” (priority 1976, dated 1980)
Like-named read-outs stand apart in the source and are kept apart here.

Experiments:
ventricular arrhythmias [1] = assay: animal or person; conditions: for minimal effective dose: Canis lupus familiaris
Procedure: Tests on dogs with the compound 2-amino-2',6'-propionoxylidide were conducted according to a modification of the method described by A. S. Harris in "Delayed Development of Ventricular Ectopic Rhythms Following Experimental Coronary Occlusions", Circ. Vol. 1, pp. 1318-1328 (1950). In this method the dogs were anesthetized, the heart was exposed, and the anterior descending branch of the left coronary artery was ligated in two stages. The thorax was closed and the dog was allowed to recover from the anesthesia. […] B. B. Clark and J. R. Cummings, "Arrhythmias Following Experimental Coronary Occlusion and Their Response to Drugs", Annals New York Academy of Sciences, Vol. 65, pp. 543-551 (1956). […] The electrocardiographic, cardiovascular and other drug effects were monitored.
The dosage schedule was: 1st hr.: 15 mg/kg/hr; 2nd hr.: 30 mg/kg/hr; 3rd hr.: 60 mg/kg/hr. Infusions were stopped at the first sign of toxicity other than emesis.
The compound 3-amino-2',6'-butyroxylidide was also tested on dogs, according to a modification of the method of Harris as previously described. As in the previously described tests, unanesthetized dogs were supported in canvas slings and were treated either intravenously or orally with doses of 3-amino-2',6'-butyroxylidide. The electrocardiographic, cardiovascular and other drug effects were monitored.

[2] = Acute oral toxicity in mice (24 Hr. mortality); conditions: mouse, in vivo, po
mice [3] = assay: Ataxia just before CHCl3 challenge in mice, oral (Table I); format: in vivo, female Swiss albino mice (HAM/ICR)
Procedure: (§1) The experiments on mice were performed according to a modification of the method described by J. W. Lawson, "Antiarrhythmic activity of some isoquinoline derivatives determined by a rapid screening procedure in the mouse", J. Pharm. Exp. Therap. Vol. 160, pp. 22-31 (1968). This method is based upon the observation that when an unanesthetized, untreated mouse is exposed to chloroform vapor its respiration soon ceases and at that time both electrocardiographic and visual inspection reveal that the cardiac ventricles are fibrillating. If the mouse is treated appropriately with known antiarrhythmic agents prior to exposure to chloroform, the respiratory failure is not accompanied by ventricular fibrillation.

[4] = system: chloroform induced fibrillation; assay: Protection against chloroform induced fibrillation in mice, subcutaneous, potency relative to lidocaine (Table IV); format: in vivo; conditions: s.c., 20 min, statistical mean (confidence limits)
Procedure: as §1
The procedure used was a modification of the method previously described. The modification involved using a standard time of 20 minutes for each test run and four different doses of the same drug. Route of administration was subcutaneous.

ventricular arrhythmias [5] = format: in vivo, dogs; conditions: for Complete Clearing, Duration: return of 50% of suppressed abnormal beats; for Complete Clearing, Onset: abnormal ventricular beats less than 5% of total beats
Procedure: Vol. 1, pp. 1318-1328 (1950). […] The electrocardiographic, cardiovascular and other drug effects were monitored.
Table II summarizes the results of oral administration:
Dogs #215 and #220 given 50 mg/kg dose at 0 mins and 100 mg/kg dose at 24
The electrocardiographic, cardiovascular and other drug effects were monitored.

mice [6] = conditions: mouse, in vivo, po, 1440 min
[7] = system: chloroform-induced arrhythmias; assay: animal or person; conditions: Mus musculus
ventricular fibrillation = assay: Protection against chloroform induced ventricular fibrillation in mice, oral (Table I); format: in vivo, female Swiss albino mice (HAM/ICR)
Procedure: as §1

cardiac arrhythmias = assay: Antiarrhythmic effect in mice, oral (summary statement); format: in vivo
Procedure: as §1

frog sciatic nerve = assay: Local anesthetic effect in vitro on the frog sciatic nerve; conditions: 20 mM, exposure for 96 min
[8] = oral, cumulative dose 100 mg/kg as HCl
[9] = oral, cumulative dose 300 mg/kg as HCl

Compound: Cc1cccc(C)c1NC(=O)C(C)N (racemic) [2-amino-2',6'-propionoxylidide]
- minimal effective dose (ventricular arrhythmias [1]; iv, read-out: Antiarrhythmic doses (cumul.)): 75 mg/kg
- minimal effective dose (ventricular arrhythmias [1]; iv, read-out: cumulative dose providing antiarrhythmic effects): 75 mg/kg
- adverse reactions (ventricular arrhythmias [1]; dog, in vivo, iv): unaccompanied by any discernible adverse reactions
- Number of dogs showing antiarrhythmic effect (ventricular arrhythmias [1]; i.v. infusion 15, 30, 60 mg/kg/hr, dogs tested: lidocaine 2, test compound 1, abnormal beats less than 5% of total): 1
- Toxic doses (cumul.) (ventricular arrhythmias [1]; i.v. infusion, stopped at first sign of toxicity other than emesis, one value per dog): 81 mg/kg
- Duration of Antiarrhythmic effect (ventricular arrhythmias [1]; i.v. infusion, return of 50% of suppressed abnormal ventricular beats, one value per dog): 71 min
- suppression of the ventricular arrhythmias (ventricular arrhythmias [1]; intravenous doses, dogs): distinct suppression of the ventricular arrhythmias
- LD50 at 24 h [2]: 529 mg/kg
- Proportion of mice having ataxia just before CHCl3 challenge (mice [3]; dose LD0.1, 20 min): 10/10
- Proportion of mice having ataxia just before CHCl3 challenge (mice [3]; dose LD0.1, 40 min): 10/10
- Proportion of mice having ataxia just before CHCl3 challenge (mice [3]; dose LD0.1, 80 min): 8/10
- Proportion of mice having ataxia just before CHCl3 challenge (mice [3]; dose LD0.1, 160 min): 5/10
- Relative Potency (ED50 test compound/ED50 lidocaine) [4]: 0.33 (0.20 - 0.54)
- adverse reactions (ventricular arrhythmias [5]; dog, in vivo, po): unaccompanied by any discernible adverse reactions
- Overt Toxicity: Convulsions, Onset (ventricular arrhythmias [5]; dog, in vivo, po, 50 mg/kg): None
- Overt Toxicity: Emesis (ventricular arrhythmias [5]; dog, in vivo, po, 50 mg/kg): None
- Overt Toxicity: Nystagmus (ventricular arrhythmias [5]; dog, in vivo, po, 50 mg/kg): None
- Overt Toxicity: Other (ventricular arrhythmias [5]; dog, in vivo, po, 50 mg/kg): None
- Overt Toxicity: Tremors (ventricular arrhythmias [5]; dog, in vivo, po, 50 mg/kg): None
- Overt Toxicity: Convulsions, Onset (ventricular arrhythmias [5]; dog, in vivo, po, 100 mg/kg): None
- Overt Toxicity: Emesis (ventricular arrhythmias [5]; dog, in vivo, po, 100 mg/kg): None
- Overt Toxicity: Nystagmus (ventricular arrhythmias [5]; dog, in vivo, po, 100 mg/kg): None
- Overt Toxicity: Other (ventricular arrhythmias [5]; dog, in vivo, po, 100 mg/kg): None
- Overt Toxicity: Tremors (ventricular arrhythmias [5]; dog, in vivo, po, 100 mg/kg): None
- Overt Toxicity: Convulsions, Onset (ventricular arrhythmias [5]; dog, in vivo, po, 150 mg/kg): None
- Overt Toxicity: Nystagmus (ventricular arrhythmias [5]; dog, in vivo, po, 150 mg/kg): None
- Overt Toxicity: Other (ventricular arrhythmias [5]; dog, in vivo, po, 150 mg/kg): None
- Overt Toxicity: Tremors (ventricular arrhythmias [5]; dog, in vivo, po, 150 mg/kg): None
- Overt Toxicity: Convulsions, Duration (ventricular arrhythmias [5]; dog, in vivo, po, 200 mg/kg): > 3 min
- Overt Toxicity: Nystagmus (ventricular arrhythmias [5]; dog, in vivo, po, 200 mg/kg): None
- Overt Toxicity: Other (ventricular arrhythmias [5]; dog, in vivo, po, 200 mg/kg): None
- Overt Toxicity: Convulsions, Duration (ventricular arrhythmias [5]; dog, in vivo, po, 300 mg/kg): 17 min
- Overt Toxicity: Convulsions, Onset (ventricular arrhythmias [5]; dog, in vivo, po, 300 mg/kg): None
- Overt Toxicity: Emesis (ventricular arrhythmias [5]; dog, in vivo, po, 300 mg/kg): None
- Overt Toxicity: Nystagmus (ventricular arrhythmias [5]; dog, in vivo, po, 300 mg/kg): None
- Overt Toxicity: Other (ventricular arrhythmias [5]; dog, in vivo, po, 300 mg/kg): None
- Overt Toxicity: Tremors (ventricular arrhythmias [5]; dog, in vivo, po, 300 mg/kg): None
- suppression of the ventricular arrhythmias (ventricular arrhythmias [5]; oral doses, dogs): distinct suppression of the ventricular arrhythmias
- Partial Clearing, Onset (ventricular arrhythmias [5]; oral, cumulative dose 50 mg/kg as HCl, 50-95% reduction of abnormal ventricular beats): None
- Complete Clearing, Duration (ventricular arrhythmias [5]; oral, cumulative dose 50 mg/kg as HCl, *** followed by off and on bursts): 195 min
- Complete Clearing, Onset (ventricular arrhythmias [5]; [8]): 120 min
- Complete Clearing, Duration (ventricular arrhythmias [5]; [8]): 45 min
- Complete Clearing, Duration (ventricular arrhythmias [5]; oral, cumulative dose 200 mg/kg as HCl, *** followed by off and on bursts): 30 min
- Complete Clearing, Onset (ventricular arrhythmias [5]; [9]): 30 min
- Complete Clearing, Duration (ventricular arrhythmias [5]; [9]): > 180 min
- 24 Hr. Mortality LD0.1 (mice [6]): 382 mg/kg
- ED50 [7]: 172 mg/kg
- Proportion of mice protected against fibrillation at LD0.1 (ventricular fibrillation; dose LD0.1, drug given 20 min before CHCl3 challenge): 9/10
- Proportion of mice protected against fibrillation at LD0.1 (ventricular fibrillation; dose LD0.1, drug given 40 min before CHCl3 challenge): 9/10
- Proportion of mice protected against fibrillation at LD0.1 (ventricular fibrillation; dose LD0.1, drug given 80 min before CHCl3 challenge): 10/10
- Proportion of mice protected against fibrillation at LD0.1 (ventricular fibrillation; dose LD0.1, drug given 160 min before CHCl3 challenge): 9/10
- maximum oral dosage providing antiarrhythmic effects (cardiac arrhythmias): about 380 mg/kg
- block of the action potential of the nerve (frog sciatic nerve): does not block the action potential at all
